Source: patent publication US20170319501A1, “Oral Pharmaceutical Dosage Forms” (DURECT CORPORATION, priority 2007, published 2017)

Experiments:
[1] = intravenous bolus dosing, human, open literature data; cited from earlier work
[2] = Preliminary in vitro volatilization test on hot plate (Example 4a); assay type: physicochemical; conditions: 40 mg sample; for Oxycodone Collected (in mg), total: total of 4 time points
Text: In order to further assess the abuse-resistance performance of the dosage forms of the present invention, the following in vitro volatilization test was developed. In particular, intentional abuse of controlled release pharmaceutical dosage forms may alternatively be carried out by volatilization (smoking, or free-basing) techniques that can liberate active agent (in immediately active form) from commercially available controlled release carrier systems. Accordingly, a preliminary in vitro volatilization test was developed in order to assess: (1) whether oxycodone free base was more volatile than the salt (HCl) form; and (2) whether the abuse-resistant dosage forms produced according to the instant invention can prevent inhalation abuse through volatilization.
Each petri dish was fitted with a watch glass as a cover, and the covered test dishes were placed on a hot plate (setting 10). After 30 seconds each watch glass was replaced with a fresh watch glass, and this step was repeated three times (to obtain 4 time points). Any residue deposited on the bottom side of the test watch glasses was carefully transferred with an Alpha Swab (TX 761) into 40/60 ethanol/0.005M HCl solution, and the concentration of oxycodone solution was determined by HPLC. The observations taken during the test were as follows. […] It was noted that vaporized drug (and solvents where present) escaped during each change of the watch glass, which may be at least partially responsible for the low recovery noted in the HPLC results below. […] The HPLC results obtained in this Example 4a are provided below in Table 30.

[3] = Solubility of the active agent in Triacetin and in water (stated); assay type: physicochemical
[4] = Thermal gravimetric analysis of oxycodone base and oxycodone HCl; assay type: physicochemical
Procedure: Initially, thermal gravimetric analysis was used to measure the weight loss of oxycodone base and oxycodone HC1 in order to determine the correct temperature to conduct the volatilization study. Oxycodone base was subjected to increasing temperature conditions (30 to 350° C.) at a ramping rate of 20° C./min. Vaporization occurred above 200° C. and was complete at 310° C. Vaporization of oxycodone HCl (28 to 400° C.) was analogous to that of the free base up to approximately 300° C. after which significant decomposition of the salt form occurred. Based on these observations, a temperature of 280° C. was selected for this study. This temperature is above the melting point of oxycodone (to ensure adequate drug vaporization) and below 300° C. (to limit decomposition of the salt form). A maximum exposure time of 10 minutes was selected based on pre-test observations that little additional oxycodone was recovered beyond that time point.

Row | SMILES | Oxycodone Collected ([2]; time point 0.5 minutes) [mg] | Oxycodone Collected ([2]; time point 1.0 minutes) [mg] | Oxycodone Collected ([2]; time point 1.5 minutes) [mg] | Oxycodone Collected ([2]; time point 2.0 minutes) [mg] | Oxycodone Collected (in mg), total [2] [mg] | solubility in Triacetin [3] | solubility in water [3] | further results
1 | C[C@H](N)Cc1ccccc1 [d-amphetamine] |  |  |  |  |  |  |  | unit impulse response parameter A [1]: 98.3±6.01; unit impulse response parameter B [1]: 28.2±0.56; unit impulse response parameter α [1]: 9.65±0.64; unit impulse response parameter β [1]: 6.31×10^−2±3.78×10^−3
2 | COc1ccc2c3c1O[C@H]1C(=O)CC[C@@]4(O)[C@@H](C2)N(C)CC[C@]314.Cl [oxycodone API (HCl salt form)] | 1.7202 | 0.4086 | 0.1236 | 0.0270 | 2.2794 |  |  | 
3 | COc1ccc2c3c1O[C@H]1C(=O)CC[C@@]4(O)[C@@H](C2)N(C)CC[C@]314 [oxycodone API (free base form)] | 1.4730 | 7.2666 | 0.7356 | 0.7050 | 10.1802 |  |  | 
4 | COc1ccc2c3c1O[C@H]1C(=O)CC[C@@]4(O)[C@@H](C2)N(C)CC[C@]314 [oxycodone free base, oxycodone] |  |  |  |  |  | high solubility in Triacetin | low water solubility | temperature above which vaporization occurred ([4]; ramping rate 20° C./min): above 200 °C; temperature at which vaporization was complete ([4]; ramping rate 20° C./min): 310 °C
5 | COc1ccc2c3c1O[C@H]1C(=O)CC[C@@]4(O)[C@@H](C2)N(C)CC[C@]314.Cl [oxycodone in salt form, oxycodone HCl] |  |  |  |  |  | low solubility in Triacetin | high solubility in water | temperature after which significant decomposition occurred ([4]; 28 to 400° C.): approximately 300 °C
